Data on 17 compounds can be found in US20260226068A1, “IMIDAZOTRIAZINE IL-17A MODULATORS AND USES THEREOF” (DICE ALPHA, INC., priority 2023, published 2026).

Structures are written as SMILES.

The target in one test is T1, IL-17A/F (Homo sapiens, UniProt Q16552+Q96PD4).
T1 construct: purchased R&D Systems
T1 sequence (Q16552 24-155): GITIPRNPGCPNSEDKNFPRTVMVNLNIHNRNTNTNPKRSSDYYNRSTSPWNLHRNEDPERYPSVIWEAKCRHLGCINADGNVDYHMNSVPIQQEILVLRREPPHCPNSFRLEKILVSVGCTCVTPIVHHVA
T1 sequence (Q96PD4 31-163): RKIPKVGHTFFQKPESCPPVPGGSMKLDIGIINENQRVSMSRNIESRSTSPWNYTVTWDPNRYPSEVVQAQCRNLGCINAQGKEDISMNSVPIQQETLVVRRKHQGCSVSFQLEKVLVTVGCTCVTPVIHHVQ
The test is described as follows: IL-17A/F HEK-Blue cell assay (SEAP reporter). To be noted: HEK-Blue IL-17A reporter cells, IL17A/F 5 ng/mL, 20 hours, SEAP read at A630; read-out: HEK-Blue IL17AF (IC50 for IL-17A/F inhibition). It is filed as cell-based.

The target in the next test is T2, IL-17A/A (Homo sapiens, UniProt Q16552).
T2 construct: purchased Genscript Z03228
T2 sequence (Q16552 24-155): T1 sequence (Q16552 24-155)
The test is described as follows: IL-17A/A HEK-Blue cell assay (SEAP reporter). In kind it is cell-based. The note with it: HEK-Blue IL-17A reporter cells, IL17A/A 5 ng/mL, 20 hours, SEAP read at A630; read-out: HEK-Blue IL17AA (IC50 for IL-17A/A inhibition).

In the case of `CCn1nccc1C(=O)N[C@H](c1cn2nc(C[C@H]3C[C@@H](C(F)(F)F)CNC3=O)c(N(C)CCOC)nc2n1)C1CCC(F)(F)CC1` [Compound 237, N—((S)-(4,4-difluorocyclohexyl)(3-((2-methoxyethyl)(methyl)amino)-2-(((3R,5R)-2-oxo-5-(trifluoromethyl)piperidin-3-yl)methyl)imidazo[1,2-b][1,2,4]triazin-6-yl)methyl)-1-ethyl-1H-pyrazole-5-carboxamide], the IC50 on IL-17A/F was 100 to 1000 nM; on IL-17A/A, < 100 nM.
For `CCn1nccc1C(=O)N[C@H](c1cn2nc(C[C@H]3C[C@@H](C(F)(F)F)CNC3=O)c(CN3CC4(CC4)C3)nc2n1)C1CCC(F)(F)CC1` [Compound 339, N—((S)-(3-((5-azaspiro[2.3]hexan-5-yl)methyl)-2-(((3R,5R)-2-oxo-5-(trifluoromethyl)piperidin-3-yl)methyl)imidazo[1,2-b][1,2,4]triazin-6-yl)(4,4-difluorocyclohexyl)methyl)-1-ethyl-1H-pyrazole-5-carboxamide], in that order: > 1000 nM and 100 to 1000 nM.
Taken in the same sequence, the figures for `O=C(N[C@H](c1cn2nc(C[C@H]3C[C@@H](C(F)(F)F)CNC3=O)cnc2n1)C1CCC(F)(F)CC1)c1conc1C1CC1` [Compound 38] were > 1000 nM and 100 to 1000 nM.
Taken in the same sequence, the figures for `CCn1nccc1C(=O)N[C@H](c1cn2nc(C[C@@H]3CC(F)(F)CNC3=O)c(C3CCOCC3)nc2n1)C1CCC(F)(F)CC1` [Compound 222] were > 1000 nM and < 100 nM.
Regarding `CCn1nccc1C(=O)N[C@H](c1cn2nc(C[C@@H]3C(=O)NC[C@H]4C[C@H]43)c(C3CCOCC3)nc2n1)C1CCC(F)(F)CC1` [Compound 428], the IC50 on IL-17A/F is > 1000 nM; at IL-17A/A it was < 100 nM.
Take `CC(C)c1nocc1C(=O)N[C@H](c1cn2nc(C[C@H]3C[C@@H](C(F)(F)F)CNC3=O)cnc2n1)C1CCC(F)(F)CC1` [Compound 32]: the IC50 at IL-17A/F is > 1000 nM; at IL-17A/A, 100 to 1000 nM.
For `CC(C)n1nccc1C(=O)N[C@H](c1cn2nc(C[C@H]3C[C@@H](C(F)(F)F)CNC3=O)c(C3CCOCC3)nc2n1)[C@H]1CCCC(F)(F)C1` [Compound 211, N-((1S)—((S)-3,3-difluorocyclohexyl)(2-(((3R,5R)-2-oxo-5-(trifluoromethyl)piperidin-3-yl)methyl)-3-(tetrahydro-2H-pyran-4-yl)imidazo[1,2-b][1,2,4]triazin-6-yl)methyl)-1-isopropyl-1H-pyrazole-5-carboxamide], in that order: < 100 nM and < 100 nM.
For `Cc1nonc1C(=O)N[C@H](c1cn2nc(C[C@H]3C[C@@H](C(F)(F)F)CNC3=O)c(C3CCOCC3)nc2n1)[C@H]1C[C@H](C2CC2)C1` [Compound 318, N—((S)-((1r,3S)-3-cyclopropylcyclobutyl)(2-(((3R,5R)-2-oxo-5-(trifluoromethyl)piperidin-3-yl)methyl)-3-(tetrahydro-2H-pyran-4-yl)imidazo[1,2-b][1,2,4]triazin-6-yl)methyl)-4-methyl-1,2,5-oxadiazole-3-carboxamide], in that order: > 1000 nM and < 100 nM.
On to `CCn1nccc1C(=O)N[C@H](c1cn2nc(C[C@H]3C[C@@H](C(F)(F)F)CNC3=O)c(CN3CCCC3C)nc2n1)C1CCC(F)(F)CC1` (stereo partly drawn) [Compound 343, N-((1S)-(4,4-difluorocyclohexyl)(3-((2-methylpyrrolidin-1-yl)methyl)-2-(((3R,5R)-2-oxo-5-(trifluoromethyl)piperidin-3-yl)methyl)imidazo[1,2-b][1,2,4]triazin-6-yl)methyl)-1-ethyl-1H-pyrazole-5-carboxamide], for which the IC50 is > 1000 nM on IL-17A/F and < 100 nM at IL-17A/A.
Taken in the same sequence, the figures for `CCn1nccc1C(=O)N[C@H](c1cn2nc(C[C@H]3CC(F)(F)CNC3=O)c(C3CCOCC3)nc2n1)[C@H]1CC[C@H](C)CC1` [Compound 297] were 100 to 1000 nM and < 100 nM.
For `CCn1nccc1C(=O)N[C@H](c1cn2nc(C[C@H]3C[C@@H](C(F)(F)F)CNC3=O)cnc2n1)C(C1CC1)C1CC1` [Compound 29, N—((S)-2,2-dicyclopropyl-1-(2-(((3R,5R)-2-oxo-5-(trifluoromethyl)piperidin-3-yl)methyl)imidazo[1,2-b][1,2,4]triazin-6-yl)ethyl)-1-ethyl-1H-pyrazole-5-carboxamide], in that order: > 1000 nM and < 100 nM.
Taken in the same sequence, the figures for `CCn1nccc1C(=O)N[C@H](c1cn2nc(C[C@H]3C[C@@H](C(F)(F)F)CNC3=O)c(C3CCOCC3)nc2n1)C(C1CC1)C1CC1` [Compound 137, N-((1S)-2,2-dicyclopropyl-1-(2-(((3R,5R)-2-oxo-5-(trifluoromethyl)piperidin-3-yl)methyl)-3-(tetrahydro-2H-pyran-4-yl)imidazo[1,2-b][1,2,4]triazin-6-yl)ethyl)-1-ethyl-1H-pyrazole-5-carboxamide] were 100 to 1000 nM and < 100 nM.
On to `CCn1nccc1C(=O)N[C@H](c1cn2nc(C[C@H]3C[C@@H](C(F)(F)F)CNC3=O)c(N3C[C@H](C)O[C@@H](C)C3)nc2n1)C1CCC(F)(F)CC1` [Compound 420, N—((S)-(4,4-difluorocyclohexyl)(3-((2S,6S)-2,6-dimethylmorpholino)-2-(((3R,5R)-2-oxo-5-(trifluoromethyl)piperidin-3-yl)methyl)imidazo[1,2-b][1,2,4]triazin-6-yl)methyl)-1-ethyl-1H-pyrazole-5-carboxamide], for which the values for the IC50 at IL-17A/F and at IL-17A/A were 100 to 1000 nM and < 100 nM, respectively.
Taken in the same sequence, the figures for `CCn1nccc1C(=O)N[C@H](c1cn2nc(C[C@H]3C[C@@H](C(F)(F)F)CNC3=O)c(N3CCOC(C)(C)C3)nc2n1)C1CCC(F)(F)CC1` [Compound 365, N—((S)-(4,4-difluorocyclohexyl)(3-(2,2-dimethylmorpholino)-2-(((3R,5R)-2-oxo-5-(trifluoromethyl)piperidin-3-yl)methyl)imidazo[1,2-b][1,2,4]triazin-6-yl)methyl)-1-ethyl-1H-pyrazole-5-carboxamide] were 100 to 1000 nM and < 100 nM.
Take `CC(C)n1nccc1C(=O)N[C@H](c1cn2nc(CC3C[C@@H](C(F)(F)F)CNC3=O)c(N3CCOCC3)nc2n1)C1CCC(F)(F)CC1` (single isomer, unassigned) [Compound 79]: the IC50 was 100 to 1000 nM on IL-17A/F and < 100 nM at IL-17A/A.
Taken in the same sequence, the figures for `CCn1nccc1C(=O)N[C@H](c1cn2nc(C[C@H]3C[C@@H](C(F)(F)F)CNC3=O)c(CC3CCCCO3)nc2n1)C1CCC(F)(F)CC1` (stereo partly drawn) [Compound 172, N-((1S)-(4,4-difluorocyclohexyl)(2-(((3R,5R)-2-oxo-5-(trifluoromethyl)piperidin-3-yl)methyl)-3-((tetrahydro-2H-pyran-2-yl)methyl)imidazo[1,2-b][1,2,4]triazin-6-yl)methyl)-1-ethyl-1H-pyrazole-5-carboxamide] were 100 to 1000 nM and < 100 nM.
For `CCn1nccc1C(=O)N[C@H](c1cn2nc(C[C@H]3C[C@H](C(F)(F)F)CNC3=O)c(C(C)(C)C)nc2n1)C1CCC(F)(F)CC1` [Compound 156, N-((1S)-(4,4-difluorocyclohexyl)(3-(tert-butyl)-2-(((3R,5S)-2-oxo-5-(trifluoromethyl)piperidin-3-yl)methyl)imidazo[1,2-b][1,2,4]triazin-6-yl)methyl)-1-ethyl-1H-pyrazole-5-carboxamide], in that order: > 1000 nM and < 100 nM.
